Biological target: T1, TRPV3 mutant W692C (Homo sapiens, UniProt Q8NET8, W692C)
T1 construct: YFP or GFP; expressed in transfected cells; host or cells: HEK293T
T1 sequence (Q8NET8 1-790 W692C): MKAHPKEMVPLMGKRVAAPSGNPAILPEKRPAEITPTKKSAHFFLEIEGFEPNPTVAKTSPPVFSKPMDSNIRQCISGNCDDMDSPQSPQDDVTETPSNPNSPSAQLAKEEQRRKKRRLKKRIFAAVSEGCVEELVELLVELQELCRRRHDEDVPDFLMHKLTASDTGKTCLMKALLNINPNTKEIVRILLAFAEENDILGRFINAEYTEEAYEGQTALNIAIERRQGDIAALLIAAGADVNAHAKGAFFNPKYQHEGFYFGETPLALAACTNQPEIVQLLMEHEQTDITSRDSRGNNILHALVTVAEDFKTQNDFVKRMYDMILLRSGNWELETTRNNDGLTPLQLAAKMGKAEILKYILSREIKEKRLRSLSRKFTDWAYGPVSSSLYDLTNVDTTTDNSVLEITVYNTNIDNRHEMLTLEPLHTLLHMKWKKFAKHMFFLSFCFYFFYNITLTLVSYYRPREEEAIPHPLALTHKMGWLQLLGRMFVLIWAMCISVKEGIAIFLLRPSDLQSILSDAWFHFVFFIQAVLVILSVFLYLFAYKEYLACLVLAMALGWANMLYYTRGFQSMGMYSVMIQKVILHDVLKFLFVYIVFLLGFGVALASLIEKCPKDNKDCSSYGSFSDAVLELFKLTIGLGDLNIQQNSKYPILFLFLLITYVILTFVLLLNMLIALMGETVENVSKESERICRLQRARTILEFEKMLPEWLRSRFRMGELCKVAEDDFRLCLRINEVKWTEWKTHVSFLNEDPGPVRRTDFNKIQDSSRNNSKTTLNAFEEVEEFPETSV
Assay: Whole-cell recording of gain-of-function TRPV3 mutant W692C
Type: cell-based
Conditions: concentration gradients of HCQ, ± 80 mV
Method: To test the effect of HCQ on carvacrol-induced skin inflammation, we evaluated the inhibitory effect of HCQ on TRPV3 activated by carvacrol in vitro.
Figure 5 HCQ can attenuate mice back skin lesions induced by TRPV3 agonist carvacrol.A, representative whole-cell recording of TRPV3 in response to 1 mM carvacrol (Car), the mixture of 1 mM Car, and concentration gradients of HCQ with the holding potential of ± 80 mV. B, concentration–response curve of Car and HCQ on TRPV3 channels fitted by Hill equation. Data were shown as mean ± SEM (n = 6 cells). C, representative whole-cell recording of W692C mutants in response to concentration gradients of HCQ with the holding potential of ± 80 mV. D, concentration–response curve of HCQ on W692C mutants fitted by Hill equation. Data were shown as mean ± SEM (n = 4 cells). E, paradigm of generation of AD-like mice model induced by Car. […] A 200 μl volume of drug was applied to each mouse. Green lines indicate the thickness of the epidermis. Upper panel, the scale bar represents 2 cm; bottom panel, scale bar represents 100 μm. G–I, quantification of thickness (G), erythema (H), dryness, and scaling (I), (n = 6 mice, mean ± SEM), thickness: F (3, 20) = 20.68, p < 0.0001; erythema: F (3, 20) = 55.10, p < 0.0001; dryness and scaling: F (3, 20) = 39.61, p < 0.0001 by one-way ANOVA followed using Tukey's post hoc test. […]

## CCN(CCO)CCCC(C)Nc1ccnc2cc(Cl)ccc12 (stereo not shown) [HCQ, hydroxychloroquine]
  effect on activity of gain-of-function TRPV3 mutant W692C: inhibited

— publication PMC11460631, “Inhibition of transient receptor potential vanilloid 3 channels by antimalarial hydroxychloroquine alleviates TRPV3-dependent dermatitis” (The Journal of Biological Chemistry, 2024)
